Holding throughout (format): physicochemical
Series [1] in a line: Solid-state stability study (temperature/humidity chamber, Xenon lamp). On the procedure: Solid-state stability study is performed using Nagano Science Constant temperature/humidity control chamber LH-20-11M, LH-21-11M, LTL-200D3CJ-14 or LTX-01. The sample is placed in the chamber and exposed under 25° C./60% RH, 40° C./75% RH and/or irradiated with a Xenon lamp. The crystalline form, thermal behavior, purity and/or weight change of the resultant sample after the exposure or irradiation are evaluated by XRPD, TG/DTA or DSC, HPLC, microbalance analysis, respectively.

Series [2] can be described thus: Thermal polymorph transformation monitored by variable-temperature PXRD. The following applies: heating. The procedure:
The PXRD analyses are performed using a Rigaku RINT-TTR X-ray powder diffractometer using Cu-Kα radiation. The samples can also be measured under the high/low temperature condition by using the attachment of the variant-temperature sample holder. The instrument is equipped with a fine focus X-ray tube. The tube voltage and amperage are set to 50 kV and 300 mA respectively. The divergence and scattering slits are set at 0.25° and the receiving slit is set at 0.15 mm. Diffracted radiation is detected by a NaI scintillation detector. A theta-two theta continuous scan at 4°/min (step size 0.02°) from 3 to 40 2-Theta° is used. A silicon standard is analyzed to check the machine alignment. Data are collected and analyzed using-Rigaku X-ray system. Samples are prepared for analysis by placing them in an aluminum sample holder that is horizontally rotated at 60 rpm during data acquisition.
Polymorph Form I begins to transform to Polymorph Form II at around 110° C. […]

Series [3] is described as follows: Hygroscopicity study by dynamic vapor sorption (DVS) analysis. The following applies: for weight gain %: 25° C., DVS sorption. The procedure: Hygroscopicity study is performed using Surface Measurement Systems DVS-1. The sample is placed on a microbalance in the instrument. After the sample is dried under 0% humidity environment at 25° C., relative humidity is raised to 95% RH at 5% RH increments, maintaining the sample at each step until equilibration had been attained. After completion of the sorption cycle, the sample is dried to 10% RH using the same procedure (desorption cycle). The weight change during the sorption/desorption cycle is monitored, allowing for the hygroscopic nature of the sample to be determined.
In the hygroscopicity study by dynamic vapor sorption (DVS) analysis, Polymorph Form I absorbs less than 0.2 wt % under 90% relative humidity (RH) at 25° C. On the other hand, the white solid disclosed in the prior art WO2006/090224 absorbs 1.2 wt % and 5.5 wt % of water under 85% RH and 90% RH, respectively.

Setting [4] is: 90% relative humidity (RH) at 25° C.

Each structure is given as a SMILES string.

Regarding `O=C(O)C1(CN2CCC(COc3noc4cccc(OCC(F)(F)F)c34)CC2)CCOCC1` [Polymorph Form I, 4-{[4-({[4-(2,2,2-trifluoroethoxy)-1,2-benzisoxazol-3-yl]oxy}methyl)piperidin-1-yl]methyl}-tetrahydro-2H-pyran-4-carboxylic acid], in series [1], the “stability compared with white solid of WO2006/090224” value is “more stable than white solid”. The “temperature at which transformation to Polymorph Form II begins” value in series [2] was “around 110 °C”. Moreover, the weight gain % amounted to 0.15% in series [3] (75% RH), 0.15% in series [3] (80% RH), 0.15% in series [3] (85% RH) and 0.18% in series [3] (90% RH). Also, the “water absorbed (DVS)” value in series [3] (setting [4]) is reported as “less than 0.2 wt %”.
As for `O=C(O)C1(CN2CCC(COc3noc4cccc(OCC(F)(F)F)c34)CC2)CCOCC1` [Polymorph Form II, 4-{[4-({[4-(2,2,2-trifluoroethoxy)-1,2-benzisoxazol-3-yl]oxy}methyl)piperidin-1-yl]methyl}-tetrahydro-2H-pyran-4-carboxylic acid], in series [1], the “stability compared with white solid of WO2006/090224” value is listed as “more stable than white solid”.
On to `O=C(O)C1(CN2CCC(COc3noc4cccc(OCC(F)(F)F)c34)CC2)CCOCC1` [White solid disclosed in the prior art WO2006/090224] [4-{[4-({[4-(2,2,2-Trifluoroethoxy)-1,2-benzisoxazol-3-yl]oxy}methyl)piperidin-1-yl]methyl}-tetrahydro-2H-pyran-4-carboxylic acid], for which the weight gain % in series [3] (75% RH) was 0.33%; in series [3] (80% RH), 0.35%; in series [3] (85% RH), 1.2%; in series [3] (90% RH) it was 5.5%. For the same molecule, the “water absorbed (DVS)” value in series [3] (85% RH) is recorded as 1.2 wt %; in series [3] (setting [4]) it was 5.5 wt %.

These data come from patent US9187463B2, “Polymorph form of 4-{[4-({[4-(2,2,2-trifluoroethoxy)-1,2-benzisoxazol-3-yl]oxy}methyl)piperidin-1-yl]methyl}-tetrahydro-2H-pyran-4-carboxylic acid” (RAQUALIA PHARMA INC., priority 2011, dated 2015).
